# Assay results: patent publication US6342360B1 (priority 1988, dated 2002)
# Several values for one entry are separate records, joined by “and”; a condition that tells them apart may be missing. Equal entries are not always repeated. Entries after “also recorded” stand apart in the source; their conditions may differ. Where two headings read alike, the source gives them in different places.
# Columns and labels:
# rat D2 dopamine receptor = rat D2 dopamine receptor (Rattus norvegicus, UniProt P61169)
# Sequence of rat D2 dopamine receptor (P61169 1-415 isoform P61169-2): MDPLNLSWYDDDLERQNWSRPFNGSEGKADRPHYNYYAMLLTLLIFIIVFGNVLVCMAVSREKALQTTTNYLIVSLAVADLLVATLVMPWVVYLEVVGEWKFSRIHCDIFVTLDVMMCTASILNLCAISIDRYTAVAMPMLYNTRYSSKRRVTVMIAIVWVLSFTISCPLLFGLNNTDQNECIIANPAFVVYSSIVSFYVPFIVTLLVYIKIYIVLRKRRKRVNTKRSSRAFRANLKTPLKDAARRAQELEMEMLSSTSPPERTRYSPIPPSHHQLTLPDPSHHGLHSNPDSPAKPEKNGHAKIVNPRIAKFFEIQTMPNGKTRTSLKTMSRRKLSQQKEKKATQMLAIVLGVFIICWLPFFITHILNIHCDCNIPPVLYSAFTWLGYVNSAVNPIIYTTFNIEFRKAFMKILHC
# Protocol: (§1) The homogenizing solution was centrifuged at 800×g for 10 min. and the pellet was subjected to a second homogenization and centrifugation as before. The supernatants were pooled and centrifuged at 200,000×g for 1 hour. […] In some experiments 100 uM guanosine 5′-triphosphate was included. […] Incubations were initiated by the addition of 15-40 μg of protein, carried out at 37° C. for 50 minutes, and stopped by the addition of 10 ml of ice-cold wash buffer (10 mM Tris, pH=7.4, and 0.9% NaCl) to each assay. The samples were filtered through glass-fiber filters (Schleicher and Schuell No. 30) and washed with an additional 10 ml of wash buffer. The radioactivity retained on the filter was counted using a Beckman LS 1701 scintillation counter. Data were analyzed as previously described (29) except that curves were drawn using the data analysis program Enzfitter. The resulting IC50 values were converted to Ki values by the method of Cheng and Prusoff (30).
# [1] = target: T1, rat dopamine D-2 receptor (Rattus norvegicus, UniProt P61169); conditions: for blockade of inhibition of adenylate cyclase by 10 μM DA: 10 μM (+)-butaclamol in assay, pertussis toxin 50 ng/ml 16 hours on cells
# T1 sequence (P61169 1-415 isoform P61169-2): as above
# Protocol: Adenylate cyclase assay: The conversion of [α^32P]ATP to [^32P]cAMP was determined essentially as described by Salomon et al. (14). […] Assays were initiated by warming to 25° and terminated after 20 minutes by cooling to 0°, then adding trichloroacetic acid (100 μl of a 30% solution) to each assay. [^3H]Cyclic AMP (approximately 30,000 cpm) was added to each assay as an internal standard. The assay volume was brought up to 1 ml with water, and tubes were centrifuged for 10 min. at 2000×g. Cyclic AMP in the supernatant was isolated by sequential chromatography on columns containing Dowex AG50W-X4 resin and neutral alumina. The 2-ml eluate from each column of alumina was dissolved in 10 ml of Bio-Safe II (RPI, Mount Prospect, Ill.) for liquid scintillation counting. Dose-response curves for inhibition of adenylate cyclase activity by agonists were analyzed by nonlinear regression using the program Enzfitter. The data were fit to the equation:
# where E is the amount of enzyme activity, expressed as percentage of total stimulated activity, A is the concentration of agonists, EC50 is the concentration of agonist causing half-maximal inhibition of enzyme activity, Emax is the enzyme activity observed in the presence of maximally inhibiting concentrations of agonist, expressed as the percentage of total stimulated activity, and N is a slope factor. Averages of EC50 values are the geometric means.
# [2] = target: T1, rat dopamine D-2 receptor
# Protocol: Receptor binding assay: The membrane preparation was thawed, centrifuged at 24,000×g for 20 min., and resuspended in Tris-isosaline except where indicated. […] Assays were carried out in duplicate in a volume of 2 ml for saturation analyses or 1 ml for inhibition analyses. Incubations were initiated by the addition of 15-50 μg of protein, carried out at 37° for 50 min., and stopped by the addition of 10 ml of ice-cold wash buffer (10 mM Tris, pH 7.4, and 0.9% NaCl) to each assay. The samples were filtered through glass-fibre filters (Schleicher & Schuell No. 30) and washed with an additional 10 ml of wash buffer. […] Data were analyzed by nonlinear regression using the data analysis program Enzfitter (Elsevier-Biosoft). […] Averages for KI and KD values are the geometric means. In experiments designed to assess the effect of GTP and NaCl on the binding of DA, fresh tissue was used. Cells were harvested, centrifuged, and Mg^2+ resuspended in Tris-Mg^2+ (50 mM Tris, pH 7.4, and 4 mM MgCl2). Tissue was incubated for 15 min. at 37° in this buffer before re-centrifugation.
# dopamine-D2 receptor [3] = target: T2, dopamine-D2 receptor (Rattus norvegicus, UniProt P61169); test: Adenylate cyclase activity in membranes from GH4ZR7 cells; type: biochemical; design: Full-length dopamine-D2 cDNA (17) was excised from λGT10 with Sal I; expressed in transfected cells; conditions: for efficacy: forskolin-stimulated adenylate cyclase
# T2 sequence (P61169 1-415 isoform P61169-2): as above
# Protocol: Adenylate Cyclase Assay: The conversion of α^32P-ATP to ^32P-cAMP was determined essentially as described by Salomon et al. (24). […] Assays carried out in triplicate were initiated by warming to 25° C. and terminated by cooling to 0° C. Trichloroacetic acid (100 μl of 30% solution) was added to each assay, and ^3H-cAMP (30,000 cpm) was added to each tube as an internal standard. The assay volume was increased to 1 ml by addition of water, and tubes were centrifuged (2000 g×10 min). cAMP in the supernatant was isolated by sequential chromatography on columns containing Dowex AG50W-X4 resin and neutral alumina. The 2-ml eluate from each alumina columntwas dissolved in 10 ml of Bio-Safe II (RPI, Mount Prospect, Ill.) for liquid scintillation counting. Calculations: Data from cAMP and PRL assays are expressed as means±standard error for triplicate determinations. Curve-fitting parameters were obtained by nonlinear regression analysis using the Enzfitter program (Elsevier Biosoft). Average affinity, EC50 and IC50 values are geometric means of the indicated number of experiments. In competition experiments, KI values were calculated from experimentally determined IC50 values by the method of Cheng and Prusoff (25).
# dopamine-D2 receptor [4] = target: T2, dopamine-D2 receptor; test: cAMP accumulation in GH4ZR7 cells
# Protocol: (§2) cAMP and PRL Assay: Cells were plated in 6-well, 35 mm dishes, 3-7 days prior to experimentation. Cells were pre-incubated in 2 ml/well warm F10+0.1% (−)-ascorbic acid+20 mM Tris (pH 7.2) (FAT) for 5-10 min, followed by addition of 1 ml/well of FAT+100 μm IBMX+experimental compounds, and incubated for 30 min. at 37° C. Experimental compounds were diluted 200- to 1000-fold from stock solutions made immediately prior to assay. […] Media were collected, and the cells were lysed immediately in 1 ml of boiling water. Cell lysates and media were centrifuged (2000×g, 10 min., 4° C.), and the supernatants collected for assay as cell extracts. Cell extracts and media samples were frozen at −20° C. until assay, if not assayed immediately. cAMP was assayed by a specific radioimmunoassay as described (22), with antibody used at 1:500 dilution. After 16 h incubation at 4° C., 20 μl of 10% BSA and 1 ml of 95% ethanol were added consecutively to precipitate the antibody-antigen complex. […] PRL was assayed in the media samples obtained as described above, except that IBMX was omitted during the 30 min incubation in FAT medium. PRL levels were determined by specific radioimmunoassay using Staphyloccus A lysate (IgSorb, The Enzyme Center, Malden, Mass.) to precipitate antigen-antibody complexes (23).
# [5] = test system: D2 dopamine receptors in rat striatal membranes; test: 3H-spiperone binding to rat striatal membranes; conditions: at the concentrations used
# Protocol: as §1
# [6] = target: human dopamine D2 receptor (Homo sapiens, UniProt P14416); test: [3H]-domperidone binding to L-hPitD2Zem membranes
# Sequence of human dopamine D2 receptor (P14416 whole entry): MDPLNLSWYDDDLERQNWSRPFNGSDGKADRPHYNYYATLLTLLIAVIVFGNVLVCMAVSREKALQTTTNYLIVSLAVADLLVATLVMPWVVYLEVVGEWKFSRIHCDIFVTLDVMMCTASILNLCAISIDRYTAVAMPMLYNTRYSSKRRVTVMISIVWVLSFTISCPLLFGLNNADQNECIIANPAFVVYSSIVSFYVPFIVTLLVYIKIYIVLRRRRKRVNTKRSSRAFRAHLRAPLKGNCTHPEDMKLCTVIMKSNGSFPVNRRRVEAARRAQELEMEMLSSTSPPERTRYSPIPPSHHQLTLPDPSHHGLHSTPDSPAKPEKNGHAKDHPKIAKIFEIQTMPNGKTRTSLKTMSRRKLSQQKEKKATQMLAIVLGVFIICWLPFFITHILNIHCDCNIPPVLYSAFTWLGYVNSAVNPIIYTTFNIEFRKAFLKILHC
# Protocol: The 2.5-kb human pituitary cDNA (hPitD2) was cloned into pZem3 (a gift from Dr. E. Mulvihill, Zymogenetics) and co-transfected with the pRSVneo gene into mouse Ltk^− cells by CaPo4 precipitation (10). A stable transfectant (L-hPitD2Zem) was selected and maintained in 750 μg/ml of G418 (Geneticin sulphate, Gibco). Twenty hours prior to the harvesting of membranes, these cells were incubated with 70 μM zinc sulphate. […] For the binding assays, membrane protein was used at 10-15 μg from L-hPitD2Zem, 50-75 μg from L-RGB2Zem-1, and 220-250 μg from rat striatum. […] The filters were washed twice in ice cold 50 mM Tris-HCl, pH 7.4. […] The Bmax, Kd, and IC50 values were determined as previously described (14).
# dopamine-D2 receptor [7] = target: T2, dopamine-D2 receptor; test: Acute PRL release in GH4ZR7 cells; type: cell-based; design: Full-length dopamine-D2 cDNA (17) was excised from λGT10 with Sal I; expressed in transfected cells; conditions: 30 min
# Protocol: as §2
# Protocol for GH4C1 cells: as §2
compound,measurement,setting,value
O=C(c1ccc(F)cc1)C1CCN(CCn2c(=O)[nH]c3ccccc3c2=O)CC1 [ketanserin],potency at inhibiting 3H-spiperone binding,rat D2 dopamine receptor; L-RGB2Zem-1 membranes,much less potent
CC(C)C[C@H]1C(=O)N2CCC[C@H]2[C@]2(O)O[C@](NC(=O)[C@@H]3C=C4c5cccc6[nH]c(Br)c(c56)C[C@H]4N(C)C3)(C(C)C)C(=O)N12 [bromocriptine],EC50,[1],45 nM and 40 nM
same,Max (maximal inhibition of adenylate cyclase activity),[1],17 ± 1%
same,agonist activity / efficacy,[1],less efficacious than DA
same,Ki,"[2]; [3H]spiroperidol 0.2 nM, GTP and NaCl present, geometric mean of 2 experiments",2.4 nM
same,rank among the six compounds tested,"[2]; inhibition of radioligand binding, LZR1",most potent
same,Ki,"[2]; read-out: KI for inhibition of [3H]spiroperidol binding, single experiment FIG. 9A, radioligand 230 pM",5 nM
same,Ki,"[2]; read-out: mean KI, 0.1 mM GTP and 120 mM NaCl, LZR1 membranes",2 nM
same,Hill coefficient,[2]; single experiment FIG. 9A,1.05
same,inhibition of forskolin-stimulated adenylate cyclase activity,dopamine-D2 receptor [3],23%
same,maximal inhibition,dopamine-D2 receptor [3],23%
same,EC50,dopamine-D2 receptor [3]; read-out: EC50,6 nM
same,EC50,"dopamine-D2 receptor [3]; read-out: EC50, inhibition of adenylate cyclase",5 nM
"CCN1CCCC1CNC(=O)c1cc(S(N)(=O)=O)ccc1OC (single isomer, unassigned; (+)) [(+)-sulpiride]",blockade of dopamine inhibition of cAMP accumulation,dopamine-D2 receptor [4],did not block; also recorded: little or no effect
CCN1CCCC1CNC(=O)c1cc(S(N)(=O)=O)ccc1OC (centres unmarked) [sulpiride],share of (+)-butaclamol-displaceable binding not inhibited,[5],10-15%
(−)-butaclamol,inhibition of domperidone binding,[6],only at very high concentrations
O=C(CCCN1CCC2(CC1)C(=O)NCN2c1ccccc1)c1ccc(F)cc1 [spiperone],blockade of dopamine inhibition of cAMP accumulation,dopamine-D2 receptor [4],blocked dopamine action
same,effect of antagonist alone on basal cAMP,dopamine-D2 receptor [4],did not alter basal cAMP levels
NCCc1ccc(O)c(O)c1 [dopamine],"effect on basal, VIP-stimulated or TRH-stimulated PRL secretion","GH4C1 cells; GH4C1 cells, data not shown",no effect
same,effect on extracellular cAMP levels,"GH4C1 cells; wild-type GH4C1 cells, VIP omitted or present",no effect
VIP: vasoactive intestinal peptide,VIP-induced enhancement of cAMP levels,dopamine-D2 receptor [4],8-12 times basal levels
same,enhancement of PRL secretion,dopamine-D2 receptor [7],1.5 fold
same,total adenylate cyclase activity stimulated,"dopamine-D2 receptor [3]; 200 nM VIP, n=3",22±7 pmol/mg protein/min
"CCCN1CCCC(c2cccc(O)c2)C1 (single isomer, unassigned; (-)) [(−)3-PPP, 3-(3-hydroxyphenyl)-N-n-propylpiperidine]",Hill coefficient,[2]; single experiment FIG. 9A,0.89
same,efficacy,dopamine-D2 receptor [3],did not consistently reduce
(+)-butaclamol,potency at inhibiting 3H-spiperone binding,rat D2 dopamine receptor,most potent inhibitors
same,blockade of inhibition of adenylate cyclase by 10 μM DA,[1],prevented
"CCCN1CCCC(c2cccc(O)c2)C1 (single isomer, unassigned; (+)) [(+)3-PPP, 3-(3-hydroxyphenyl)-N-n-propylpiperidine]",efficacy,dopamine-D2 receptor [3],as efficacious as dopamine
CCN1CCC[C@H]1CNC(=O)c1cc(S(N)(=O)=O)ccc1OC [(−)-sulpiride],blockade of dopamine inhibition of cAMP accumulation,dopamine-D2 receptor [4],blocked dopamine action
same,effect of antagonist alone on basal cAMP,dopamine-D2 receptor [4]; absence of dopamine,did not alter basal cAMP levels
pertussis toxin,blockade of inhibition of adenylate cyclase by 10 μM DA,[1],blocked
same,forskolin-stimulated adenylate cyclase activity versus control membranes,[1]; membranes from pertussis toxin-treated cells,approximately 2.5 fold
same,effect of pretreatment on inhibition of basal and VIP-stimulated cAMP by dopamine,"dopamine-D2 receptor [4]; pertussis toxin 50 ng/ml, 16 h",abolished
same,effect of pretreatment on dopamine inhibition of forskolin-stimulated adenylate cyclase,dopamine-D2 receptor [3]; pertussis toxin 16 h,uncoupled
CN1CCN2c3ccccc3Cc3ccccc3C2C1 (centres unmarked) [mianserin],inhibition of domperidone binding,[6]; [3H]-domperidone 1 nM,only at very high concentrations
